Results: the supplement of paper PMC10627819

Tests used:
S. aureus Newman [1] = experiment: fitness (endpoint OD595 vs no drug) (fraction); higher = more growth; details: main component drawn
Outline: (§1)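 Fitness compares growth at the stationary-phase transition with the robust mean of no-drug control wells, as a ratio of optical densities. The ratio is capped at 1. Wells of 384-well plates held 30 µl, or 55 µl for S. pneumoniae, inoculated at OD595 0.01. Readings at OD595 every 30 min for 14 h at 37 °C were corrected against the first reading.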

S. aureus DSM 20231 = experiment: Bliss interaction score (quartile over a dose matrix) (fitness difference); higher = more antagonism (negative = synergy)
Outline: (§2)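 Quartiles of the Bliss score were taken over technical, biological and donor/recipient replicates. That score is observed fitness minus the product of the single-drug fitness values, which were inferred from combination data. Fitness itself is OD595 at entry into stationary phase divided by the plate's robust no-drug mean, with a cap at 1.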

S. pneumoniae D39V [2] = experiment: as above
Outline: as §2

S. aureus Newman [3] = experiment: as above
Outline: as §2

B. subtilis 168 [4] = experiment: as above
Outline: as §2

S. pneumoniae D39V [5] = experiment: fitness (endpoint OD595 vs no drug) (fraction); higher = more growth
Outline: as §1

B. subtilis 168 [6] = experiment: as above
Outline: as §1
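For Bliss interaction score (quartile over a dose matrix) in this document: first quartile when negative (synergy) and third quartile when positive (antagonism).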

CC1=C(C(=O)O)N2C(=O)[C@@H](NC(=O)[C@H](N)c3ccccc3)[C@H]2SC1 [Cephalexin] + CCCCCCCCCC(=O)N[C@@H]1[C@H]([C@@H]([C@H](O[C@H]1OC2=C3C=C4C=C2OC5=C(C=C(C=C5)[C@H]([C@H]6C(=O)N[C@@H](C7=C(C(=CC(=C7)O)OC8[C@H]([C@H]([C@@H]([C@H](O8)CO)O)O)O)C9=C(C=CC(=C9)[C@H](C(=O)N6)NC(=O)[C@@H]4NC(=O)[C@@H]1C2=CC(=CC(=C2)OC2=C(C=CC(=C2)[C@H](C(=O)N[C@H](CC2=CC(=C(O3)C=C2)Cl)C(=O)N1)N)O)O)O)C(=O)O)O[C@H]1[C@@H]([C@H]([C@@H]([C@H](O1)CO)O)O)NC(=O)C)Cl)CO)O)O [Teicoplanin]
fitness, S. aureus Newman [1]
Details | first compound 0.25 µg/mL | first compound 0.5 µg/mL | first compound 1 µg/mL
partner 0.1562 µg/mL | ≥ 1 | ≥ 1 | ≥ 1
partner 0.3125 µg/mL | ≥ 1 | ≥ 1 | ≥ 1
partner 0.625 µg/mL | ≥ 1 | ≥ 1 | ≥ 1

fitness, S. aureus Newman [1], one replicate
Details | first compound 0.5 µg/mL | first compound 1 µg/mL | first compound 2 µg/mL
partner 0.62 µg/mL | 0.827 | 0.855 | 0.847
partner 1.24 µg/mL | 0.77 | 0.796 | 0.739
partner 2.48 µg/mL | 0.565 | 0.498 | 0.587

main component drawn
Details | Bliss interaction score
B. subtilis 168 [4] | 0.0688
S. aureus DSM 20231 | 0.0334
S. aureus Newman [3] | 0.0429
S. pneumoniae D39V [2] | 0.0339

CC1=C(C(=O)O)N2C(=O)[C@@H](NC(=O)[C@H](N)c3ccccc3)[C@H]2SC1 [Cephalexin] + CCC[C@@H]1C[C@@H](C(=O)N[C@@H]([C@H]2O[C@H](SC)[C@H](O)[C@@H](O)[C@H]2O)[C@@H](C)O)N(C)C1 [Lincomycin]
fitness, one replicate
Details | partner 0.1 µg/mL | partner 0.2 µg/mL | partner 0.4 µg/mL | partner 0.8 µg/mL
B. subtilis 168 [6], first compound 1 µg/mL | ≥ 1 | ≥ 1 | ≥ 1 | –
S. pneumoniae D39V [5], first compound 0.125 µg/mL | – | 0.722 | 0.663 | 0.206
S. pneumoniae D39V [5], first compound 0.25 µg/mL | – | 0.759 | 0.643 | 0.304
S. pneumoniae D39V [5], first compound 0.5 µg/mL | – | 0.786 | 0.702 | 0.288

Details | fitness
B. subtilis 168 [6], first compound 0.125 µg/mL, partner 0.1 µg/mL | 0.901
B. subtilis 168 [6], first compound 0.125 µg/mL, partner 0.2 µg/mL | 0.876
B. subtilis 168 [6], first compound 0.125 µg/mL, partner 0.4 µg/mL | 0.852
B. subtilis 168 [6], first compound 0.25 µg/mL, partner 0.1 µg/mL | 0.941
B. subtilis 168 [6], first compound 0.25 µg/mL, partner 0.2 µg/mL | 0.937
B. subtilis 168 [6], first compound 0.25 µg/mL, partner 0.4 µg/mL | 0.913
B. subtilis 168 [6], first compound 0.5 µg/mL, partner 0.1 µg/mL | 0.939
B. subtilis 168 [6], first compound 0.5 µg/mL, partner 0.2 µg/mL | 0.901
B. subtilis 168 [6], first compound 0.5 µg/mL, partner 0.4 µg/mL | 0.852
S. pneumoniae D39V [5], first compound 1 µg/mL, partner 0.215 µg/mL | 0.832
S. pneumoniae D39V [5], first compound 1 µg/mL, partner 0.43 µg/mL | 0.716
S. pneumoniae D39V [5], first compound 1 µg/mL, partner 0.86 µg/mL | 0.403
S. pneumoniae D39V [5], first compound 2 µg/mL, partner 0.43 µg/mL | 0.373
S. pneumoniae D39V [5], first compound 2 µg/mL, partner 0.86 µg/mL | 0.176
S. pneumoniae D39V [5], first compound 4 µg/mL, partner 0.215 µg/mL | 0.0258
S. pneumoniae D39V [5], first compound 4 µg/mL, partner 0.43 µg/mL | 0.0283
S. pneumoniae D39V [5], first compound 4 µg/mL, partner 0.86 µg/mL | 0.0358

Details | Bliss interaction score
B. subtilis 168 [4] | -0.0209
S. aureus DSM 20231 | 0.101
S. aureus Newman [3] | 0.0797
S. pneumoniae D39V [2] | 0.159

CC1=C(C(=O)O)N2C(=O)[C@@H](NC(=O)[C@H](N)c3ccccc3)[C@H]2SC1 [Cephalexin] + CN(C)C(=O)C(CCN1CCC(O)(c2ccc(Cl)cc2)CC1)(c1ccccc1)c1ccccc1 [Loperamide]
fitness, S. pneumoniae D39V [5], one replicate
Details | first compound 0.125 µg/mL | first compound 0.25 µg/mL | first compound 0.5 µg/mL | first compound 1 µg/mL | first compound 2 µg/mL | first compound 4 µg/mL
partner 20 µg/mL | ≥ 1 | ≥ 1 | ≥ 1 | – | – | –
partner 40 µg/mL | ≥ 1 | 0.995 | 0.99 | – | – | –
partner 68.57 µg/mL | – | – | – | 0.53 | 0.15 | 0.0031
partner 80 µg/mL | 0.753 | 0.784 | 0.612 | – | – | –

Details | fitness
B. subtilis 168 [6], first compound 0.125 µg/mL, partner 25 µg/mL | 0.819
B. subtilis 168 [6], first compound 0.125 µg/mL, partner 50 µg/mL | 0.0465
B. subtilis 168 [6], first compound 0.125 µg/mL, partner 100 µg/mL | 0.0315
B. subtilis 168 [6], first compound 0.25 µg/mL, partner 25 µg/mL | 0.803
B. subtilis 168 [6], first compound 0.25 µg/mL, partner 50 µg/mL | 0.039
B. subtilis 168 [6], first compound 0.25 µg/mL, partner 100 µg/mL | 0.025
B. subtilis 168 [6], first compound 0.5 µg/mL, partner 25 µg/mL | 0.712
B. subtilis 168 [6], first compound 0.5 µg/mL, partner 50 µg/mL | 0.0372
B. subtilis 168 [6], first compound 0.5 µg/mL, partner 100 µg/mL | 0.0277
S. pneumoniae D39V [5], first compound 2 µg/mL, partner 34.28 µg/mL | 0.165
S. pneumoniae D39V [5], first compound 4 µg/mL, partner 17.14 µg/mL | 0.0474
S. pneumoniae D39V [5], first compound 4 µg/mL, partner 34.28 µg/mL | 0.0181

Details | Bliss interaction score
B. subtilis 168 [4] | -0.0893
S. aureus DSM 20231 | 0.116
S. aureus Newman [3] | 0.0814
S. pneumoniae D39V [2] | -0.129

CC1=C(C(=O)O)N2C(=O)[C@@H](NC(=O)[C@H](N)c3ccccc3)[C@H]2SC1 [Cephalexin] + COc1cc(Cc2cnc(N)nc2N)cc(OC)c1OC [Trimethoprim]
fitness, B. subtilis 168 [6]
Details | first compound 0.125 µg/mL | first compound 0.25 µg/mL | first compound 0.5 µg/mL | first compound 1 µg/mL
partner 0.25 µg/mL | – | 0.685 | – | 0.699
partner 0.5 µg/mL | 0.445 | 0.465 | 0.517 | 0.528

fitness, B. subtilis 168 [6], one replicate
Details | partner 0.1 µg/mL | partner 0.125 µg/mL | partner 0.2 µg/mL | partner 0.4 µg/mL | partner 1 µg/mL | partner 2 µg/mL
first compound 0.125 µg/mL | – | – | – | – | 0.48 | 0.501
first compound 0.25 µg/mL | 0.915 | 0.749 | 0.791 | 0.533 | 0.402 | 0.418
first compound 0.5 µg/mL | 0.884 | 0.758 | 0.809 | 0.565 | 0.372 | 0.509
first compound 1 µg/mL | 0.879 | 0.759 | 0.86 | 0.572 | – | –

Details | Bliss interaction score
B. subtilis 168 [4] | 0.113
S. aureus DSM 20231 | -0.058
S. aureus Newman [3] | -0.0582
S. pneumoniae D39V [2] | 0.0759
